Source: PubChem BioAssay AID1159562 (GlaxoSmithKline (GSK), 2015)
Activity calls are given as the source filed them. How the calls were made is not given here.

Test system: Trypanosoma brucei growth inhibition, luminescence
Experiment: Trypanosoma brucei growth inhibition, luminescence (AID 1159562);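 further: parasites grew with compound for 24 h before the luminescence read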

IC50	SMILES
7.9 µM	Cc1cn[nH]c1C1CCCN(Cc2nc3ccccc3n2C)C1 (stereo unspecified)
10 µM	COc1cc(Cl)c(C)cc1NC(=O)c1ccc([N+](=O)[O-])s1
0.63 µM	O=C(NNC(=O)c1ccccn1)c1ccc(-c2ccccc2)cc1
6.3 µM	c1ccc(-c2nc(NC3CCCC3)c3ccccc3n2)nc1
> 40 µM (inactive)	Cc1cc2ncn(-c3ccc([N+](=O)[O-])cc3C#N)c2cc1C
4 µM	Cc1cc(C)n(-c2nc(NC(C)(C)C)nc(N3CCOCC3)n2)n1
0.63 µM	O=C(COc1ccccc1)Nc1ccccc1C(=O)Nc1nccs1
> 40 µM (inactive)	Cc1ccc2sc(NC(=O)Cn3cnc([N+](=O)[O-])n3)nc2c1
> 40 µM (inactive)	CN(C)S(=O)(=O)c1cccc(CSc2nnc(-c3ccc4c(c3)OCO4)o2)c1
0.5 µM	Cc1occc1C(=O)Nc1ccccc1C(=O)Nc1nccs1
13 µM	c1ccc(Nc2nc(-c3ccccn3)cc(N3CCOCC3)n2)cc1
16 µM	Nc1nc(-c2ccccc2)cc(-c2nc3ncccc3[nH]2)n1
0.63 µM	O=C(Nc1nc(-c2ccccn2)cs1)N1C[C@H]2C[C@@]2(c2ccccc2)C1
1 µM	O=C1COC(c2ccccc2)(c2ccccc2)CN1C1CCN(Cc2ccc(-n3ccnc3)cc2)CC1
0.4 µM	CCN(CC)c1ncc(C(=O)c2ccc([N+](=O)[O-])o2)s1
2.5 µM	Cc1nc2c(-c3n[nH]c(-c4ccccc4N)n3)cccn2c1C
0.4 µM	COc1ccc2ncc(Cl)c(CCN3CC[C@@H](NCc4cc5c(cn4)OCS5)[C@H](O)C3)c2n1
16 µM	O=C(CN1CCN(S(=O)(=O)c2cccc([N+](=O)[O-])c2)CC1)Nc1ccc(Oc2ccccc2)cc1
> 40 µM (inactive)	COc1cccc(C(=O)[C@H]2C[C@@H]2CN(Cc2cccnc2)Cc2cccnc2)c1
> 40 µM (inactive)	CCC(=O)Nc1ccc(-c2nc3ccc(Cl)cc3[nH]2)cc1
0.32 µM	O=C(NCCc1ccn(-c2ccccc2)n1)C1CCCCC1
0.32 µM	NC(=O)c1cc(F)ccc1Nc1nc(NC2CCC(O)CC2)ncc1Br (stereo unspecified)

IC50	SMILES
> 40 µM (inactive)	CC(=O)Nc1nc(-c2cc(C)ccc2C)c(C)s1
> 40 µM (inactive)	Cc1nc(C(=O)Nc2ccc3c(c2)OCO3)nn1-c1ccc(Cl)cc1
5 µM	Cc1ccc(-c2csc(NC(=O)C=Cc3ccc(S(=O)(=O)N4CCOCC4)cc3)n2)o1
> 40 µM (inactive)	Cc1cc(C)nc(N2CCC(N(Cc3cccnc3)C(=O)c3cccc(C#N)c3)CC2)n1
1.3 µM	O=C(NCC1CCCCC1)c1cc(=O)c2ccccc2o1
0.63 µM	COc1ccc(S(=O)(=O)Nc2ccc(CN3CCN(C(=O)c4cccc(C#N)c4)CC3)cc2)cc1
20 µM	CCOc1cc(NCCCN2CCN(C)CC2)c2ncccc2c1
25 µM	O=C(CN(c1cccc(C(F)(F)F)c1)S(=O)(=O)c1ccc(Cl)cc1)NCc1ccc(F)c(F)c1
0.79 µM	COc1ccc(OC)c(S(=O)(=O)N(Cc2c(F)cccc2F)[C@@H]2CCN(C#N)C2)c1
> 40 µM (inactive)	N#Cc1ccccc1S(=O)(=O)N1CCN(C(=O)CNC(=O)c2ccc3c(c2)OCO3)CC1
> 40 µM (inactive)	Cc1nn(C)c(Cl)c1CN(Cc1cccnc1)Cc1ccsc1
40 µM	c1ccc2c(CCOc3nccnc3-c3ccncc3)c[nH]c2c1
32 µM	COc1cccc(CCNC(=O)C(c2cn[nH]c2)N2CCN(c3ccc(Cl)cc3)CC2)c1 (stereo unspecified)
> 40 µM (inactive)	O=C(c1ccc(Cl)cc1)c1ccc(OC(=O)N2CCOCC2)cc1
25 µM	CN(Cc1cc2ccccc2s1)c1ncc2c(N)nc(N)nc2n1
0.4 µM	CCC(=O)Nc1ccccc1C(=O)Nc1ccccn1
0.32 µM	O=C(Cc1ccccc1)Nc1[nH]nc2sc(C(=O)NC3CCCC3)cc12
1 µM	COc1ccc(NS(=O)(=O)c2cccc(NC(=O)c3cc(F)cc(F)c3)c2)cc1
> 40 µM (inactive)	COc1ccc(CN2CCCCC2c2nc(-c3cccnc3)no2)cc1 (stereo unspecified)
25 µM	CC1(C)CCC(=Cc2ccc(Cl)cc2)CC1(O)Cn1ccnc1 (stereo unspecified)
0.25 µM	CCCCCNC(=O)c1c[nH]c2ccc(S(=O)(=O)N(C)c3ccc(OCC)cc3)cc2c1=O
25 µM	Cc1cc(Br)cc(C(=O)c2c(C(C)C)c(=O)[nH]c(=O)n2Cc2ccnc(N)c2)c1

IC50	SMILES
> 40 µM (inactive)	CCC(c1ccc(F)cc1)n1cncc1-c1cnn(C)c1 (stereo unspecified)
10 µM	O=C(Nc1nc(-c2ccc(S(=O)(=O)N3CCOCC3)cc2)cs1)c1ccc([N+](=O)[O-])cc1
32 µM	CC(c1cc(Cl)cc(Cl)c1)N(C)c1ncc2c(N)nc(N)nc2n1 (stereo unspecified)
2.5 µM	CC(C)(C)c1cc(NC2CC2)nc(-c2ccccn2)n1
0.5 µM	COc1cc(F)c2ncc(F)c(CCN3CC[C@H](NCc4cc5c(cn4)OCS5)[C@@H](O)C3)c2c1
0.5 µM	COc1ccc2ncc(=O)n(CCN3CC[C@H](NCc4ncc(Cl)c5[nH]ncc45)[C@H](O)C3)c2n1
1.3 µM	O=C(Nc1nc(-c2ccc(F)cc2)cs1)c1ccc([N+](=O)[O-])s1
0.79 µM	O=c1cc(NCCCNCc2c[nH]c3ccc(Br)cc23)[nH]c2ccccc12
> 40 µM (inactive)	CCOc1cnn(C)c(=O)c1Nc1ccc(C(=O)NCc2ccc(F)cc2)cc1
0.4 µM	O=C(Nc1cccc(S(=O)(=O)Nc2ccc(Br)cc2)c1)c1ccc([N+](=O)[O-])s1
1 µM	CNC(=O)C1Cc2ccccc2N1C(=O)COc1cccc(OC)c1 (stereo unspecified)
6.3 µM	COc1ccc2ncc(=O)n(CCN3CCC(NCc4ccc(-c5cccs5)cc4)CC3)c2n1
7.9 µM	O=C(CN1CCC2(O)CCCCC2C1c1ccc2c(c1)OCO2)Nc1ccc(Cl)cc1Cl (stereo unspecified)
> 40 µM (inactive)	Fc1ccccc1N1C[C@H]2CCN(c3cccnc3)C[C@H]2C1
1 µM	CNC(=O)C1Cc2ccccc2N1C(=O)Cc1ccccc1 (stereo unspecified)
1.6 µM	CC(C)(C)c1csc(NC(=O)c2ccc([N+](=O)[O-])s2)n1
1 µM	c1ccc2[nH]c(-c3ccc(N4CCCC4)nc3)nc2c1
5 µM	CC(C)(C)Nc1nc(Nc2ccc3c(c2)CS(=O)(=O)C3)nc2[nH]ccc12
> 40 µM (inactive)	Clc1ccc(C(CC2CCCCO2)Cn2cncn2)c(Cl)c1 (stereo unspecified)
10 µM	Cc1nn(-c2ccccc2)nc1CNC(=O)CN(Cc1ccccn1)Cc1ccccn1
10 µM	Cc1c(CNC(=O)c2ccc(Cn3cc(Cl)c([N+](=O)[O-])n3)cc2)cnn1C
32 µM	CCOc1ccc(Nc2ccc(S(=O)(=O)N3CCN(C)CC3)cc2[N+](=O)[O-])cc1OCC

IC50	SMILES
> 40 µM (inactive)	CC(C)c1cc(C(=O)N2CCCC(c3cc4ncccc4[nH]3)C2)on1 (stereo unspecified)
16 µM	Cc1cc(C)c(C#N)c(SCC(=O)c2ccc3c(c2)OCO3)n1
5 µM	Cc1cc(N(C)C)nc2ccc(Cc3cnc(N)nc3N)cc12
0.63 µM	COc1ccc2ncc(Cl)c(CCN3CC[C@H](NCc4cc5c(cn4)OCS5)[C@@H](O)C3)c2n1
> 40 µM (inactive)	O=C(CSc1ccc(F)cc1)N[C@@H](Cc1cnc[nH]1)C(=O)NCCc1ccccc1
> 40 µM (inactive)	COc1ccc(S(=O)(=O)NC(C)C)cc1Nc1ncc(-c2cccc(F)c2)cn1
32 µM	COc1ccc(-c2cnc(C)o2)cc1S(=O)(=O)Nc1ccc(C)cc1C
> 40 µM (inactive)	COc1ccccc1-n1c(SCC(=O)Nc2ccc3c(c2)OCO3)nc2c(c1=O)SCC2
> 40 µM (inactive)	CN1CCCN(C(=O)c2ccc(N3CCCC3)cc2Cl)CC1
2.5 µM	COc1ccc(-c2nc3ncccc3o2)cc1NC(=O)c1cccs1
0.79 µM	CCOc1ccc(OCC(=O)N2c3ccccc3CC2C(=O)NC)cc1 (stereo unspecified)
0.79 µM	C[C@@H](Oc1cc(-n2cnc3ccc(C(O)CO)cc32)sc1C(N)=O)c1ccccc1C(F)(F)F (stereo partly specified)
25 µM	CCC(=O)Nc1ccc(C(=O)Nc2ccccc2-c2ccccc2)cc1
1 µM	O=c1cc(CSc2ccc(Cl)cc2)nc(-c2ccccn2)[nH]1
> 40 µM (inactive)	CC1(Oc2cncc(Cl)c2)CCN(Cc2cc3ccccc3[nH]2)C1 (stereo unspecified)
0.4 µM	O=c1cc(NCCCNCc2cc(C(F)(F)F)cs2)[nH]c2ccccc12
> 40 µM (inactive)	O=C(c1ccc(OCCCc2cnc[nH]2)cc1)C1CC1
> 40 µM (inactive)	O=C(CSc1nnc(-c2ccc3c(c2)OCO3)o1)N(Cc1ccco1)CC(F)(F)F
3.2 µM	Cc1ccc(Nc2nc(-c3ccccn3)cc(N3CCCC(O)C3)n2)cc1 (stereo unspecified)
> 40 µM (inactive)	Cn1cncc1CN1CCC2(CC1)COC(Cc1ccccc1)C2 (stereo unspecified)
0.25 µM	COc1ccc(Nc2nc(NC3CCC(O)CC3)ncc2Br)c(C(N)=O)c1 (stereo unspecified)
0.32 µM	O=C(Nc1ccc(C(=O)N2CCCC2c2ccc3c(c2)OCCCO3)cc1)c1ccco1 (stereo unspecified)

IC50	SMILES
40 µM	CCN(C)Cc1ccc(N2CCC(NS(=O)(=O)c3ccc4c(c3)CCO4)CC2)nc1
0.2 µM	CS(=O)(=O)c1ccc(Nc2nccc(-c3cnn4ncccc34)n2)cc1
3.2 µM	CCCn1c(NC(=O)Cc2ccc(Cl)cc2)nc2ccccc21
0.2 µM	NCc1ccc2c(Cl)cc(Cl)c(O)c2n1
0.5 µM	CNC(=O)C1Cc2ccccc2N1C(=O)Cc1ccc(OC)cc1 (stereo unspecified)
> 40 µM (inactive)	Cc1cc(N(C)C)nc(Nc2ccccc2C)n1
1.3 µM	N#Cc1cc(-c2ccnc(Nc3cccc(CN4CCOCC4)c3)n2)ccc1NCCN
> 40 µM (inactive)	O=c1ccn(-c2ccc([N+](=O)[O-])cc2Cl)c2ccc(F)cc12
3.2 µM	O=C(Nc1ccc(Br)cn1)c1ccc(Cn2cnc([N+](=O)[O-])n2)cc1
0.2 µM	NC(=O)c1ncc(N[C@@H]2CCCNC2)nc1Nc1cccc(Cl)c1
0.05 µM	CC(C)C[C@H](NC(=O)c1ccc(-c2ccccc2)o1)C(=O)NC1(C#N)CC1
16 µM	NC(=O)c1ccc(-c2cccc(OCCN3CCN(C4CCCCC4)CC3)c2)cc1
> 40 µM (inactive)	CCCN1CCN(Cc2ccc(S(=O)(=O)Nc3cccc(C)c3)cc2)CC1
0.79 µM	Cc1ccc(NC(=O)c2ccc([N+](=O)[O-])s2)cc1S(=O)(=O)N1CCOCC1
> 40 µM (inactive)	CN(Cc1ccc(C(N)=O)cc1)C(c1ccc(F)cc1)c1cccnc1 (stereo unspecified)
> 40 µM (inactive)	Cc1nc(C(=O)Nc2ccc3c(c2)OCO3)nn1-c1ccc(F)cc1
32 µM	N#Cc1nc(C=Cc2ccccc2)oc1NCc1cccnc1
1 µM	O=C(Nc1ccc(-c2nc3ccccc3c(=O)[nH]2)cc1)c1cccs1
